In the series the test system is CCRIS mutagenicity, Ames/micronucleus/aberration tests. Description: CCRIS mutagenicity studies.
[1] abbreviates: Test System: AMES SALMONELLA TYPHIMURIUM, Strain/Indicator: TA98, Metabolic Activation: NONE, Method: PREINCUBATION
The mark [2] stands for this setting: Test System: AMES SALMONELLA TYPHIMURIUM, Strain/Indicator: TA100, Metabolic Activation: NONE, Method: PREINCUBATION
Where [3] appears, read: Test System: AMES SALMONELLA TYPHIMURIUM, Strain/Indicator: TA1535, Metabolic Activation: NONE, Method: PREINCUBATION
The mark [4] stands for this setting: Test System: AMES SALMONELLA TYPHIMURIUM, Strain/Indicator: TA1537, Metabolic Activation: NONE, Method: PREINCUBATION
[5] abbreviates: Test System: AMES SALMONELLA TYPHIMURIUM, Strain/Indicator: TA100, Metabolic Activation: NONE, Method: STANDARD PLATE.

The values below come from PubChem BioAssay AID1259407 (Chemical Carcinogenesis Research Information System (CCRIS), 2018).

Structures are written as SMILES. Calls of active or inactive are those of the source. The rule behind the calls is not given here.

With `OCCN(CCO)CCO`, the mutagenic call is, setting by setting: (End Point: IN VITRO CHROMOSOMAL ABERRATIONS, Test System: CHINESE HAMSTER OVARY CELLS, Metabolic Activation: NONE) “inactive; negative”; (End Point: IN VITRO CHROMOSOMAL ABERRATIONS, Test System: CHINESE HAMSTER OVARY CELLS, Metabolic Activation: RAT, LIVER, S-9, AROCLOR 1254) “inactive; negative”; (End Point: IN VITRO CHROMOSOMAL ABERRATIONS, Test System: CHO, Metabolic Activation: NONE) “inactive; negative”; (End Point: IN VITRO CHROMOSOMAL ABERRATIONS, Test System: CHO, Metabolic Activation: RAT, LIVER, S-9, AROCLOR 1254) “inactive; negative”; (End Point: IN VIVO MICRONUCLEUS, Test System: POLYCHROMATIC BLOOD LYMPHOCYTES, Species: MOUSE, Strain/Sex: B6C3F1/MALE, FEMALE, Route: DERMAL) “inactive; negative”; (Test System: AMES SALMONELLA TYPHIMURIUM, Strain/Indicator: TA98, Metabolic Activation: HAMSTER LIVER S-9, AROCLOR-1254 (10%), Method: PREINCUBATION) “inactive; negative”. Also, the mutagenic call was “inactive; negative” (Test System: AMES SALMONELLA TYPHIMURIUM, Strain/Indicator: TA98, Metabolic Activation: HAMSTER, LIVER, S-9 (10%), AROCLOR 1254, Method: PREINCUBATION); “inactive; negative” under setting [1]; “inactive; negative” (Test System: AMES SALMONELLA TYPHIMURIUM, Strain/Indicator: TA98, Metabolic Activation: RAT LIVER S-9, AROCLOR-1254 (10%), Method: PREINCUBATION); “inactive; negative” (Test System: AMES SALMONELLA TYPHIMURIUM, Strain/Indicator: TA98, Metabolic Activation: RAT, LIVER, S-9 (10%), AROCLOR 1254, Method: PREINCUBATION); “inactive; negative” (Test System: AMES SALMONELLA TYPHIMURIUM, Strain/Indicator: TA100, Metabolic Activation: HAMSTER LIVER S-9, AROCLOR-1254 (10%), Method: PREINCUBATION); “inactive; negative” (Test System: AMES SALMONELLA TYPHIMURIUM, Strain/Indicator: TA100, Metabolic Activation: HAMSTER, LIVER, S-9 (10%), AROCLOR 1254, Method: PREINCUBATION). Besides, the mutagenic call by setting is: under setting [2], “inactive; negative”; (Test System: AMES SALMONELLA TYPHIMURIUM, Strain/Indicator: TA100, Metabolic Activation: RAT LIVER S-9, AROCLOR-1254 (10%), Method: PREINCUBATION) “inactive; negative”; (Test System: AMES SALMONELLA TYPHIMURIUM, Strain/Indicator: TA100, Metabolic Activation: RAT, LIVER, S-9 (10%), AROCLOR 1254, Method: PREINCUBATION) “inactive; negative”; (Test System: AMES SALMONELLA TYPHIMURIUM, Strain/Indicator: TA1535, Metabolic Activation: HAMSTER LIVER S-9, AROCLOR-1254 (10%), Method: PREINCUBATION) “inactive; negative”; (Test System: AMES SALMONELLA TYPHIMURIUM, Strain/Indicator: TA1535, Metabolic Activation: HAMSTER, LIVER, S-9 (10%), AROCLOR 1254, Method: PREINCUBATION) “inactive; negative”; under setting [3], “inactive; negative”. The mutagenic call is “inactive; negative” (Test System: AMES SALMONELLA TYPHIMURIUM, Strain/Indicator: TA1535, Metabolic Activation: RAT LIVER S-9, AROCLOR-1254 (10%), Method: PREINCUBATION); “inactive; negative” (Test System: AMES SALMONELLA TYPHIMURIUM, Strain/Indicator: TA1535, Metabolic Activation: RAT, LIVER, S-9 (10%), AROCLOR 1254, Method: PREINCUBATION); “inactive; negative” (Test System: AMES SALMONELLA TYPHIMURIUM, Strain/Indicator: TA1537, Metabolic Activation: HAMSTER LIVER S-9, AROCLOR-1254 (10%), Method: PREINCUBATION); “inactive; negative” (Test System: AMES SALMONELLA TYPHIMURIUM, Strain/Indicator: TA1537, Metabolic Activation: HAMSTER, LIVER, S-9 (10%), AROCLOR 1254, Method: PREINCUBATION); “inactive; negative” under setting [4]; “inactive; negative” (Test System: AMES SALMONELLA TYPHIMURIUM, Strain/Indicator: TA1537, Metabolic Activation: RAT LIVER S-9, AROCLOR-1254 (10%), Method: PREINCUBATION). Further, the mutagenic call (Test System: AMES SALMONELLA TYPHIMURIUM, Strain/Indicator: TA1537, Metabolic Activation: RAT, LIVER, S-9 (10%), AROCLOR 1254, Method: PREINCUBATION) is “inactive; negative”.

For `c1ccc(-c2ccc(CC3CO3)cc2)cc1` (stereo not given), the mutagenic call is, setting by setting: under setting [2], “active; positive”; under setting [5], “active; positive”; under setting [3], “active; positive”; (Test System: AMES SALMONELLA TYPHIMURIUM, Strain/Indicator: TA1535, Metabolic Activation: NONE, Method: STANDARD PLATE) “active; positive”.

As for `Clc1cccc2cc3ccccc3cc12`, the mutagenic call runs as follows: (Test System: AMES SALMONELLA TYPHIMURIUM, Strain/Indicator: TA98, Metabolic Activation: NONE, Method: STANDARD PLATE) “inactive; negative”; (Test System: AMES SALMONELLA TYPHIMURIUM, Strain/Indicator: TA98, Metabolic Activation: RAT, LIVER, S-9, AROCLOR 1254, Method: STANDARD PLATE) “inactive; negative”; under setting [5], “inactive; negative”; (Test System: AMES SALMONELLA TYPHIMURIUM, Strain/Indicator: TA100, Metabolic Activation: RAT, LIVER, S-9, AROCLOR 1254, Method: STANDARD PLATE) “inactive; negative”.

For the molecule `Cn1ccc2ccc3ccc4ccc(O)cc4c3c21`, the mutagenic call (Test System: AMES SALMONELLA TYPHIMURIUM, Strain/Indicator: TA98, Metabolic Activation: RAT, LIVER, S-9, AROCLOR, Method: STANDARD PLATE) was “active; positive”.

As to `Clc1ccc(Cl)c(Cl)c1`, the mutagenic call (Test System: AMES SALMONELLA TYPHIMURIUM, Strain/Indicator: TA98, Metabolic Activation: HAMSTER, LIVER, S-9, AROCLOR 1254, Method: PREINCUBATION) is “inactive; negative”; the mutagenic call under setting [1] is “inactive; negative”; the mutagenic call (Test System: AMES SALMONELLA TYPHIMURIUM, Strain/Indicator: TA98, Metabolic Activation: RAT, LIVER, S-9, AROCLOR 1254, Method: PREINCUBATION) is “inactive; negative”; the mutagenic call (Test System: AMES SALMONELLA TYPHIMURIUM, Strain/Indicator: TA100, Metabolic Activation: HAMSTER, LIVER, S-9, AROCLOR 1254, Method: PREINCUBATION) is “inactive; negative”; the mutagenic call under setting [2] was “inactive; negative”; the mutagenic call (Test System: AMES SALMONELLA TYPHIMURIUM, Strain/Indicator: TA100, Metabolic Activation: RAT, LIVER, S-9, AROCLOR 1254, Method: PREINCUBATION) is “inactive; negative”. For the same molecule, the mutagenic call reads like this: (Test System: AMES SALMONELLA TYPHIMURIUM, Strain/Indicator: TA1535, Metabolic Activation: HAMSTER, LIVER, S-9, AROCLOR 1254, Method: PREINCUBATION) “inactive; negative”; under setting [3], “inactive; negative”; (Test System: AMES SALMONELLA TYPHIMURIUM, Strain/Indicator: TA1535, Metabolic Activation: RAT, LIVER, S-9, AROCLOR 1254, Method: PREINCUBATION) “inactive; negative”; (Test System: AMES SALMONELLA TYPHIMURIUM, Strain/Indicator: TA1537, Metabolic Activation: HAMSTER, LIVER, S-9, AROCLOR 1254, Method: PREINCUBATION) “inactive; negative”; under setting [4], “inactive; negative”; (Test System: AMES SALMONELLA TYPHIMURIUM, Strain/Indicator: TA1537, Metabolic Activation: RAT, LIVER, S-9, AROCLOR 1254, Method: PREINCUBATION) “inactive; negative”.

As for `Nc1cccc2c1-c1cccc3cccc-2c13`, the mutagenic call reads like this: (Test System: AMES SALMONELLA TYPHIMURIUM, Strain/Indicator: TA98, Metabolic Activation: RAT, LIVER, S-9, AROCLOR 1254 (2 OR 4%), Method: STANDARD PLATE) “active; positive”; (Test System: AMES SALMONELLA TYPHIMURIUM, Strain/Indicator: TA100, Metabolic Activation: RAT, LIVER, S-9, AROCLOR 1254 (2%), Method: STANDARD PLATE) “active; positive”; (Test System: AMES SALMONELLA TYPHIMURIUM, Strain/Indicator: TA1535, Metabolic Activation: RAT, LIVER, S-9, AROCLOR 1254 (2%), Method: STANDARD PLATE) “inactive; negative”; (Test System: AMES SALMONELLA TYPHIMURIUM, Strain/Indicator: TA1537, Metabolic Activation: RAT, LIVER, S-9, AROCLOR 1254 (2%), Method: STANDARD PLATE) “active; positive”.
